# Source: patent US6420416B2, “Method of treating epilepsy” (Daiichi Pharmaceutical Co., Ltd., priority 2000, dated 2002)
# Tested on: rats subjected to a central fluid percussion injury
# Assay: Morris water maze after central fluid percussion injury (traumatic brain injury model)
# Type: in vivo, rat
# Protocol: As shown in the graph, administration of nefiracetam at 3 mg/kg and 9 mg/kg were tested against a control group treated only with the pharmacological carrier ([…]). The rats were subjected to a central fluid percussion injury, which is a typical animal model for traumatic brain injury. Beginning one day after the injury, the rats were subjected to daily oral drug administrations at the 3 and 9 mg/kg dosage levels. The administration solutions contained the nefiracetam in […] at a concentration sufficient to provide the required dosage level in a single 1 ml/kg dosage of solution. The rats were then tested in the Morris water maze on days 11-15 after injury. On the days that the rats were tested, the drug was administered 15 minutes prior to testing. […] The improvement seen at the 9 mg/kg dosage correlates to a reduction in the cognitive deficit by 55% compared to the control.
compound,measurement,setting,value
"Cc1cccc(C)c1NC(=O)CN1CCCC1=O [nefiracetam, N-(2,6-dimethyl-phenyl)-2(2-oxo-1-pyrrolidinyl)acetamide]",effectiveness in the water maze,"3 mg/kg daily oral, days 11-15 after injury",not significantly effective
same,reduction in the cognitive deficit compared to the control,"9 mg/kg daily oral from one day after injury, Morris water maze on days 11-15 after injury, drug 15 minutes prior to testing",55%
same,improvement in brain function as measured by performance in the water maze,"9 mg/kg daily oral, compared to the control and the 3 mg/kg dosage level, days 11-15 after injury",significant improvement
